Experimental data reported in publication PMC12073402, “A Selective MAP3K1 Inhibitor Facilitates Discovery of NPM1 as a Member of the Network” (Molecules, 2025).
Read-outs that look alike come from different tables or passages of the source.

Assays:
[1] = Metabolic stability in human liver microsomes (LC-MS/MS); type: in vitro ADME; settings: Species Human
Excerpt: An approach to address this issue of bioavailability is to improve metabolic stability. The para-position of the phenyl ring in acetanilide moieties is susceptible to oxidation. […] To test this, we altered the substitution pattern on the phenyl ring by moving the F atom from the ortho in 84 to the para position (Figure 1A). The regioisomer 51-106, resulting from the above change, was synthesized by coupling 3-(1-methyl-1H-pyrazol-4-yl)quinoxalin-6-amine (1) with freshly prepared 1-fluoro-4-isocyanato-2-(trifluoromethyl)benzene in dichloromethane (Scheme 1). To determine the metabolic stability of 51-106, we incubated 51-106 and analog 84 with human (pooled male and female) liver microsomes and monitored their stability using liquid chromatography–tandem mass spectrometry.
The in vitro metabolic stability of 51-106 was determined using human liver […] (XenoTech, LLC; Kansas City, KS, USA), following previously reported methods. […] Sample analysis was performed by liquid chromatography–tandem mass spectrometry (SCIEX QTRAP 4000 LC-MS/MS System, SCIEX, Framingham, MA, USA).

[2] = set-up: method as in PMID 34098465; settings: cited from earlier work
[3] = tested on: pancreatic cancer mouse model; set-up: method as in PMID 34098465; settings: by itself and in combination with gemcitabine; cited from earlier work
[4] = tested on: TNFα-induced IKKβ-mediated NFκB activation; set-up: method as in PMID 34098465; settings: analog 84 over the earlier IKKβ inhibitor; cited from earlier work
[5] = tested on: NPM1 T199 phosphorylation; experiment: Western blot of NPM1 T199 phosphorylation in PANC-1 cells; type: cell-based; settings: 2 h
Excerpt: We further investigated changes in NPM1 phosphorylation in our dataset. Of the NPM1 phosphorylation sites quantified, four sites had significant dose-dependent decreases upon 51-106 treatment: S137, T199, S222, and S227. Only one of these phosphorylation sites, T199, has a commercially available antibody. Importantly, T199 phosphorylation plays an essential role in NPM1 function, as it is required for localization of NPM1 to sites of DNA double-stranded breaks, where it colocalizes with other DNA repair proteins such as γH2AX and RAD51 [38].
Cells were washed with cold 1× PBS and lysed in Radioimmunoprecipitation assay (RIPA) buffer (Cat# 89901; Thermo Fisher Scientific), sodium orthovanadate (Na3VO4) (Cat# 567540-5GM; Sigma-Aldrich; St. Louis, MO, USA), sodium fluoride (NaF) (Cat# 201154-5G, >99% purity; Sigma-Aldrich), β-glycerophosphate (Cat# G9422-10G; Sigma-Aldrich), and 1 mM phenylmethylsulfonyl fluoride (Cat# 10837091001; Sigma Aldrich). The samples were incubated on ice for 30 min, vortexed at 10 min intervals, and centrifuged at 14,000× g for 10 min at 4 °C. The supernatant was collected, and protein was quantified using the BCA Protein Assay kit (Cat# 23225; Thermo Fisher Scientific). […]

SMILES	T1/2 (half-life) in human liver microsomes [1]	Hepatic Extraction Ratio (E) ([1]; human liver microsomes)	half-life ([1]; both sexes, human, liver microsomes, read-out: T1/2 (half-life) in human liver microsomes (converted))	AUC0-∞ ([2]; 20 mg/kg, Oral)	AUClast ([2]; 20 mg/kg, Oral)	Cmax ([2]; 20 mg/kg, Oral)	MRT 0-∞ ([2]; 20 mg/kg, Oral)	T1/2 ([2]; 20 mg/kg, Oral)	Tmax ([2]; 20 mg/kg, Oral)	Bioavailability (%F) ([2]; 20 mg/kg, Oral, listed as 84)	Bioavailability (%F) ([2]; 20 mg/kg, Oral, listed as analog 84)	improved bioavailability ([2]; analog 84 over the earlier IKKβ inhibitor)	tumor growth [3]	improved potency [4]	NPM1 T199 phosphorylation (Western blot) [5]
Cn1cc(-c2cnc3ccc(NC(=O)Nc4cccc(C(F)(F)F)c4F)cc3n2)cn1 [Analog 84]	~ 13 h	0.09	13.6 h	8008 ± 3696 ng·h/mL	7986 ± 3675 ng·h/mL	700 ± 320 ng/mL	6.3 ± 0.5 h	2.5 ± 0.3 h	6.0 h	17.6%	~17%	~ 5.7 fold	inhibited tumor growth	~ 4 fold	
CN[C@@H]1C[C@H]2O[C@@](C)([C@@H]1OC)n1c3ccccc3c3c4c(c5c6ccccc6n2c5c31)C(=O)NC4 [Staurosporine, reference compound]															Decreased phosphorylation in NPM1 T199
